Test [1] concerns ADP-induced human platelet aggregation (human platelet-rich plasma). Nature of the test: inhibition of ADP-mediated platelet aggregation in platelet-rich plasma (PRP assay). The format is cell-based. How it is done:
Platelet-rich plasma (PRP) is prepared by centrifugation of whole blood at 160×g for 20 minutes at room temperature. […] PPP is prepared by centrifugation of the remaining blood sample (after removal of PRP) for 20 minutes at 800×g. This preparation of PRP can subsequently be used for aggregation assays in either a 96-well plate or standard cuvette aggregometry.
J. Clin. Pathol. […] All steps are performed at room temperature. […] The plates are then agitated for 5 min on a microtiter plate shaker and the 5 minute reading is obtained in the plate reader. […] IC50s were derived by non-linear regression analysis.

The target of test [2] is T1, P2Y12 receptor on platelets (Homo sapiens, UniProt Q9H244).
T1 construct: endogenous in cells; host or cells: human platelets, apyrase-washed: outdated from hospital blood banks, or fresh
Nature of the test: platelet ADP receptor binding assay (ARB): inhibition of [3H]2-MeS-ADP binding to platelets. Particulars: apyrase-washed human platelets. How it is done:
1. The Ability of Candidate Molecules to Inhibit the Binding of [3H]2-MeS-ADP to the P2Y12 Receptor on Platelets was Determined Using a Radioligand Binding Assay.
Utilizing this assay the potency of inhibition of such compounds with respect to [^3H]2-MeS-ADP binding to whole platelets is determined. Under the conditions described in II (3) below, the binding of [^3H]2-MeS-ADP is solely due to the interaction of this ligand with the P2Y12 receptor, in that all the specific binding measured in this assay is compatible with a P2Y12 antagonist (i.e., the specific binding is reduced to background levels by competition with an excess of P2Y12 antagonist, with no competition of binding when a P2Y1 antagonist is pre-incubated with the platelet preparation). […]
A platelet ADP receptor binding assay (ARB) using the tritiated potent agonist ligand [^3H]2-MeS-ADP (Jantzen, H. M. et al. (1999) Thromb. Hemost. 81:111-117) has been adapted to the 96-well microtiter format. […] Total binding is determined in the absence of test compounds. […] The platelet-bound radioactivity on the filtermats is determined in a scintillation counter (Microbeta 1450, Wallac Inc., Gaithersburg, Md.). Specific binding is determined by subtraction of non-specific binding from total binding, and specific binding in the presence of test compounds is expressed as % of specific binding in the absence of test compound dilutions. […]

The results in this text go back to patent US8058284B2, “[4-(6-halo-7-substituted-2,4-dioxo-1,4-dihydro-2H-quinazolin-3-yl)-phenyl]-5-chloro-thiophen-2-yl-sulfonylureas and forms and methods related thereto” (Portola Pharmaceuticals, Inc., priority 2005, dated 2011).

Read-outs that look alike come from different tables or passages of the source.

T1 sequence (Q9H244 whole entry): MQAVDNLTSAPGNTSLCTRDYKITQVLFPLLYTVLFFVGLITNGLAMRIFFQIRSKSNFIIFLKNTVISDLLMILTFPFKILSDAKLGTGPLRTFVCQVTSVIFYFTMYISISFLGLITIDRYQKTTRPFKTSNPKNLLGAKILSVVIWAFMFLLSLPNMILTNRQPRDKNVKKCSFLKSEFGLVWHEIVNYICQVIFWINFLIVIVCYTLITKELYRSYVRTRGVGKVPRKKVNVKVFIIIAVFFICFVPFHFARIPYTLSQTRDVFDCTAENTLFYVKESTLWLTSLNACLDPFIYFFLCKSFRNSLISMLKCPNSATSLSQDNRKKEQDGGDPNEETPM

For the compound `CNc1cc2[nH]c(=O)n(-c3ccc(NC(=O)NS(=O)(=O)c4ccc(Cl)s4)cc3)c(=O)c2cc1F` [Example 2], the IC50 – broadly, the concentration at which inhibition is half-maximal – is < 10 µM in test [1] (Platelet) and < 0.05 µM in test [2].

For `CNc1cc2[nH]c(=O)n(-c3ccc(NC(=O)NS(=O)(=O)c4ccc(Cl)s4)cc3)c(=O)c2cc1Cl` [Example 3, [4-(6-chloro-7-methylamino-2,4-dioxo-1,4-dihydro-2H-quinazolin-3-yl)-phenyl]-5-chloro-thiophen-2-yl-sulfonylurea], the results for the IC50 in test [1] and in test [2] were 10 to 30 µM and 0.05 to 0.5 µM, respectively.
